What was measured:
[1] = system: human poly-IgG (h-poly-IgG); test: Microtiter plate chromatography of resins, human poly-IgG (bound, yield); format: binding
Bevacizumab = molecular target: T1, Bevacizumab (Homo sapiens, UniProt P01857); test: Uptake kinetics by batch adsorption (time-scale of binding); set-up: species or system humanized; settings: 0.75 mg ml^−1 Bevacizumab in PBS, 25° C.
T1 construct: fused on or other part: humanised anti-VEGF-A VH domain N-terminal of the gamma-1 constant region (engineered, no UniProt entry)
Description: Uptake kinetics were investigated similarly by batch adsorption in 96-well filter plates. Again, 10 μl of sorbent slurry (50% v/v) were mixed with 100 μl of protein solution. However, a fixed initial concentration of 0.75 mg ml^−1 Bevacizumab in PBS was used. Reactions were agitated vigorously at 25° C. for up to 80 min. Supernatants were separated rapidly by spinning through filters after 2.5, 5, 10, 20, 40 and 80 minutes and sampled for analysis. Concentrations of the antibody were analyzed by Bradford assay.
Uptake kinetics were characterized by a time-scale of binding t0.8, which was defined as the time after which 80% of the equilibrium saturation of resin with antibody had occurred. For determination of t0.8, measured concentrations in the supernatant were interpolated by fitting of double-exponentials (5) and values of t0.8 were read out from graphs. Parameters of Langmuir isotherms and time-scales of binding for in-house resins as well as for reference resins are reported in the table below.

Structure (SMILES): COc1ccc(NC(=O)c2cc(-c3ccco3)n(C)n2)cc1C(=O)NCCCN [Ligand L1, 5-[5-(2-Furyl)-1-methylpyrazol-3-yl]carboxamido-2-methoxybenzoic acid N-(3-aminopropyl)amide]
- h-poly-IgG Bound (%) [1]: 100%
- h-poly-IgG Yield (%) [1]: 90%
- t0.8 (time-scale of binding, 80% of equilibrium saturation) (Bevacizumab): 9.9 min

— patent US20130131321A1, “LIGANDS FOR ANTIBODY AND Fc-FUSION PROTEIN PURIFICATION BY AFFINITY CHROMATOGRAPHY” (GRAFFINITY PHARMACEUTICALS GMBH, priority 2010, published 2013)
